The text below walks through data of article PMC9572541, “Design, Synthesis and Biological Evaluation of Novel and Potent Protein Arginine Methyltransferases 5 Inhibitors for Cancer Therapy” (Molecules, 2022).

Entries after “also recorded” stand apart in the source; their conditions may differ.

The subject of data set [1] is sDMA. Briefly: Western blot of sDMA in MV-4-11 xenograft tumors. The data set is classed as in vivo, BALB/c nude mice. The settings on record: 10 mg/kg, 28 days. As for the experimental part:
Subsequently, we investigated the effects of compound 20 on the expression of the PRMT5 substrate sDMA in vivo (Figure 8). Similarly, the expression of sDMA was decreased after the treatment of compound 20, which was in line with its antitumor activity in vivo.
Tumor tissue was grinded by a cryo-grinder before being lysed with an RIPA buffer, protease inhibitors (PMSF, MCE), and phosphatase cocktails II (MCE). The mixture was centrifuged for 15 min (12,000 rpm). The following steps were the same as with cells.
(A) Western blot analysis of sDMA as indicated in MV-4-11 xenograft tumors treated with the indicated compounds for 28 days. (B) The relative strength of sDMA signal on the Western blots was measured by densitometry. The data are shown as the mean ± SD of three independent experiments. * p < 0.05 vs. control.
(In general: A western blot detects proteins with antibodies after separation by electrophoresis.)

For data set [2], the system named is MV-4-11 xenograft. Briefly: MV-4-11 xenograft mouse model. Format: in vivo, BALB/c nude mice. The settings on record: 28 days. As for the experimental part:
Based on the excellent enzymatic and anti-proliferative activities of compound 20 in vitro, we then evaluated antitumor activities in vivo in an MV-4-11 xenograft mouse model.
Male BALB/c nude mice (6–8 weeks old) were purchased from Hangzhou Medical College. All animals were housed in a specific pathogen-free facility. MV-4-11 cells (5 × 10^6) suspended in 0.2 mL of PBS were inoculated subcutaneously on the right flank of each BALB/c nude mouse. Mice were divided randomly (5 mice for each group) into two treatment groups and a control group when the size of the tumors reached 150 mm^3. […] The tumor volume and body weight were measured every 2 days. The tumor volume was determined with Vernier calipers and calculated as follows: tumor volume = a × b^2/2, where a and b stand for the longest and shortest diameters measured by the vernier caliper, respectively. All animal experiments have been approved by Pharmaceutical Experiment Center of China Pharmaceutical University.
(A) The resulting tumors excised from the animals after treatment. […] (C) The nude mouse body weight was measured every 2 days. (D) The tumor volumes of the nude mice were measured and calculated once every 2 days.

Data set [3] relates to sDMA. As to the kind of experiment: Western blot of PRMT5 substrate sDMA in MV-4-11 cells. The data set is classed as cell-based. The conditions noted are these: 96 h, five-fold concentration gradient. As for the experimental part: Compounds were administered at the expected concentration for the expected time in MV-4-11 cell lines. After being washed twice with PBS, cells were lysed with RIPA buffer, protease inhibitors (PMSF, MCE, New York, NY, USA), and phosphatase cocktails II (MCE, USA) for 1 h. The mixture was centrifuged at 12000 rpm for 15 min. The total protein content was quantified by BCA kit (Beyotime, Shanghai, China). Equivalent proteins were electrophoresed through 8~10% SDS-PAGE and then transferred on to polyvinylidene difluoride membranes (Millipore, Burlington, MA, USA). Subsequently, block the membrane for 1~2 h by 5% (w/v) skim milk (BD, Columbus, OH, USA). Proteins were detected using primary antibodies, followed by HRP-conjugated secondary antibodies, and visualization was performed using ECL (Vazyme Biotech, Beijing, China) as the HRP substrate. The target blots were detected with chemiluminescence system (Tanon, Shanghai, China). The densitometric analysis was performed with Image J software.
Western blot analysis of PRMT5 substrate sDMA, as indicated in MV-4-11 cancer cells treated with the indicated compounds for 96 h. β-Tubulin was used as a loading control. (B) The relative strength of sDMA signal on the Western blots was measured by densitometry. The data are shown as the mean ± SD of three independent experiments.

Data set [4] concerns AML-12 hepatocytes. As to the kind of experiment: Toxicity on normal AML-12 hepatocytes. The data set is classed as cell-based. The text has this:
MV-4-11 and MDA-MB-468 cell lines were used to evaluate the anti-proliferative activities of the selected target compounds (CellTiter-Glo assay), and AML-12 hepatocytes were selected to evaluate the toxicity of the compounds.
MV-4-11 and MDA-MB-468 cell line were derived from Cell Resources Center of Shanghai Academy of life sciences (Shanghai, China). AML-12 cell line was brough from Nanjing Lixing Biotechnology Co. Ltd. (Nanjing, China). MDA-MB-468 cell line was maintained in Dulbecco’s Modified Eagle Medium (DMEM, KeyGEN Bio) that contained 10% FBS (Biochanel, China), MV-4-11 cell line was maintained in Iscove’s Modified Dulbecco Medium containing; 10% FBS (Biochannel, China), AML-12 cell line was maintained in DMEM/F-12 (1:1) (KeyGEN, China; 1% ITS Liquid Media Supplement (Sigma, America), dexamethasone 40 ng/mL (Sigma, USA) and 10% FBS (Biochannel, China). All cells were grown in a humidified incubator containing 5% carbon dioxide at 37 ℃. All compounds were dispersed in dimethyl sulfoxide (Sigma), the concentration of the reserve solution was 10 mmol/L and the solution was stored in a refrigerator at −20 ℃. SDMA (# 13222S), β- Tubulin (#2146S) and horseradish peroxidase (HRP)-linked secondary antibodies anti-rabbit or anti-mouse IgG were purchased from Cell Signaling Technology (CST), and the anti-PRMT5 (ab109451) antibody was purchased from ABCAM. […]

As a reminder, the TGI is the reduction of tumour growth relative to the control group. Usually inhibition stands for the drop in the measured response relative to a control, in per cent.

Turning to `O=C(NC[C@H](O)CN1CCc2ccccc2C1)c1ccc2c(c1)c1c(n2CC2COC2)CCCC1` [Compound 20, (S)-N-(3-(3,4-dihydroisoquinolin-2(1H)-yl)-2-hydroxypropyl)-9-(oxetan-3-ylmethyl)-2,3,4,9-tetrahydro-1H-carbazole-6-carboxamide], in data set [1], the “expression of sDMA in vivo” value is given as “decreased”. Besides, in data set [2] (10 mg/kg BID), the body weight result is on record as “no significant weight fluctuations” and the tolerability / mortality entry is listed as “well-tolerated with no mortality”. The tumour growth inhibition (TGI) in data set [2] (10 mg/kg, twice daily (BID)) was found to be 47.6%. For the same compound, the sDMA protein expression entry in data set [3] is reported as “concentration-dependent decrease in sDMA”. In data set [4], the “toxicity to normal AML-12 hepatocytes (in words)” value is recorded as “almost no toxicity; also recorded: no significant cytotoxicity”. Also, the inhibition at 10 µM in data set [4] (Mus musculus, AML12, read-out: AML-12 Inhibition Rate% @10 μM) was -30.5 ± 9.4%. The inhibition at 20 µM in data set [4] (Mus musculus, AML12, read-out: AML-12 Inhibition Rate% @20 μM) was -27 ± 1.2%.
